{"source": "patent US11439696B2", "about": "“Modulation of proprotein convertase subtilisin/kexin 9 expression (PCSK9) with HSP 27 and/or HSP25” (PEMI31 Therapeutics Inc., priority 2015, dated 2022)", "key": {"PCSK9 mRNA": {"test_system": "PCSK9 mRNA", "experiment": "PCSK9 mRNA expression in HepG2 (liver) cells by quantitative RT-PCR", "type": "cell-based", "conditions": "HepG2 (FIG. 14)"}, "PCSK9 [1]": {"test_system": "PCSK9", "experiment": "PCSK9 secretion from HepG2 (liver) cells with increasing doses of Atorvastatin", "type": "cell-based", "conditions": "HepG2, increasing doses of AV (FIG. 12)", "method": "[…] At the end of incubation period, the medium was removed and centrifuged at 4,000 rpm for 10 min at 4° C. to remove a small amount of residual cells and debris. The supernatant fraction was stored at 4° C. until analyzed.\nTotal cell or tissue lysates were prepared in lysis buffer (20 mM Tris-Hcl pH8.0, 150 mM NaCl, 0.1% SDS, 0.1 mM PMSF). Lysates were cleared by centrifugation at 4° C., 12,000 rpm for 10 min, and protein concentrations were determined using the Bradford protein assay with BSA as the standard. Samples (30 μl culture medium, 50 μg for cell and 25 μg for liver) were separated by SDS-PAGE under reducing conditions, transferred to IMMOBILON® PVDF (IMMOBILON is a registered trademark of Millipore Corp.) using IBLOT® Dry Blotting System (Life Technologies; IBLOT is a registered trademark of Invitrogen Corp., Carlsbad, Calif., USA) and subsequently membranes were immunoblotted with the following antibodies: LDL-R (Santa Cruz, 1:1000) and PCSK9 (Santa Cruz, 1:1000); β-Actin (Santa Cruz, 1:1000) was used as the loading control. Appropriate secondary HRP-conjugated antibodies were used prior to visualization by enhanced chemiluminescence (ECL, Life technologies)."}, "[2]": {"experiment": "Stability of HSP27 in human serum at −20° C. (MRM-MS)", "type": "physicochemical", "conditions": "two representative human sera, 3 weeks storage at −20° C. (FIG. 7E)", "method": "The assay was fully validated according to the U.S. Food and Drug Administration (FDA) Bioanalytical method validation guideline (www.fda.dov/downloads/Drugs/GuidanceComplianceRegulatoryInformation/Guidances/UCM070107). Nine calibration standards of trypsin-digested recombinant HSP27 were prepared by serial dilution in concentrations of 1000; 500; 250; 125; 62.5; 31.25; 15.625; 7.8 and 0 ng/ml. The limit of detection (LOD) was calculated as the smallest detectable peak above baseline noise (signal-to-noise ratio>3:1). Calculating target peptide: AQUA peptide ratios of the peak area for each concentration level. Standard curves were constructed by linear regression analysis by excel. The same samples were analyzed 7 times and the repeatability was compared. Extraction efficiency and recovery were performed by comparing concentrations between samples without and with standard rHSP27. Matrix effect was assessed using double dilution test for the linearity when serum samples were 1, 2, 4 and 8 times diluted. Parallelism test was also applied to estimate matrix effect. Stability of HSP27 in human serum was estimated for 21 days at −20° C."}, "PCSK9 [3]": {"test_system": "PCSK9", "experiment": "Western blot (relative densitometry) of PCSK9 expression in HepG2 (liver) cells", "type": "cell-based", "conditions": "HepG2 (liver) cells treated for 1 h (FIG. 15)", "method": "(§1) HepG2 cells (0.5×10^6 cells/60 mm well) were incubated on H-Glucose DMEM medium containing 10% FBS and 1×penicillin/streptomycin in the presence or absence of rHsp27 (200 μg) for specified time periods at 37° C. At the end of incubation period, the medium was removed and centrifuged at 4,000 rpm for 10 min at 4° C. to remove a small amount of residual cells and debris. The supernatant fraction was stored at 4° C. until analyzed.\n(§2) Meanwhile, cells were washed three times with cold PBS, scraped off the dishes (after the addition of 1 ml lysis buffer (20 mM Tris-HCl; pH 8.0; 150 mM NaCl; 0.1 mM PMSF), and sonicated; whole cell lysates were then stored at −20° C. until use.\n(§3) Total cell or tissue lysates were prepared in lysis buffer (20 mM Tris-Hcl pH8.0, 150 mM NaCl, 0.1% SDS, 0.1 mM PMSF). Lysates were cleared by centrifugation at 4° C., 12,000 rpm for 10 min, and protein concentrations were determined using the Bradford protein assay with BSA as the standard. […]\nHepG2 cells in the 6-well plates were washed twice with phosphate-buffered saline and lifted by pipette with 1 ml PBS. […] The membrane fraction was re-suspended in PBS by sonication and the protein concentration was determined by Bradford reagent (Sigma). […] Signals on the membrane were visualized by chemi-luminescence of HRP substrate."}, "LDL-Receptor": {"test_system": "LDL-Receptor", "experiment": "Western blot (relative densitometry) of LDL-Receptor expression in HepG2 (liver) cells", "type": "cell-based", "conditions": "HepG2 (liver) cells treated for 6 h (FIG. 16)", "method": "as §1, §2, §3"}, "LDL-Receptor (LDL-R)": {"test_system": "LDL-Receptor (LDL-R)", "experiment": "LDL-Receptor fluorescent immunolabelling of HepG2 (liver) cells", "type": "cell-based", "conditions": "HepG2, 17β-estradiol 100 nM or rHSP27 100 μg overnight (16 hours) (FIG. 17)", "method": "HepG2 cells (10^5 cells) were seeded in SPL Coverglass sterile dish 35×10 mm (Bio Lab) for 2 days. Cells were then treated with 17β-estradiol (100 nM) or rHSP27 (100 μg) overnight (16 hours). After washing, cells were fixed in 4% paraformaldehyde, permeabilized in 0.5% (v/v) Triton x-100 for 10 minutes, washed, blocked in 10% horse serum (1 hour), washed, then incubated in primary antibody rabbit monoclonal to LDL-R (Ab52818; ABCAM; 1:100) 4° C. overnight. After washing, cells were incubated in secondary antibody fluorescein goat Anti-Rabbit IgG antibody (FI-1000; Vector Laboratories; 1:100) for 30 min at room temperature, then mounted with mounting medium with DAPI (VectaShield Antifade Mounting Medium with DAPI; Vector Labs H-1200) for at least 24 hour in the dark before visualization. Various controls were used, and included: (i) absence of the Triton treatement, and (ii) omitting the primary or secondary antibodies used for immunolabelling. Immunofluorescence 10^5 cells were seeded ina SPL coverglass sterile dish 35×10 mm (Bio Lab) for 2 days. The cells were then treated with 17 β-estradiol (100 nM) or rHSP27 (100 μg) overnight (16 hours). […] Mounted with mounting medium with DAPI (VectaShield Antifade Mounting Medium with DAPI; Vector Labs H-1200) for at least 24 hour in the dark before visualization with fluorescence microscopy."}}, "note": "Values joined by “and” are separate entries in the source; they are usually repeats but may differ in a detail not shown here. Identical values can stand only once.", "data": [{"molecule": "CC(C)c1c(C(=O)Nc2ccccc2)c(-c2ccccc2)c(-c2ccc(F)cc2)n1CC[C@@H](O)C[C@@H](O)CC(=O)O", "note": "[AV, Atorvastatin]", "values": [{"measurement": "PCSK9 expression (mRNA) on treatment with AV", "setting": "PCSK9 mRNA", "result": "increase"}, {"measurement": "secretion of PCSK9", "setting": "PCSK9 [1]", "result": "dose-dependent secretion"}]}, {"molecule": "endogenous HSP27: endogenous heat shock protein 27 in human serum samples, measured by MRM-MS", "values": [{"measurement": "endogenous HSP27 remaining after storage", "setting": "[2]", "result": "111+6 % of fresh sera and 87+5 % of fresh sera"}]}, {"molecule": "C[C@]12CC[C@@H]3c4ccc(O)cc4CC[C@H]3[C@@H]1CC[C@@H]2O", "note": "[17 β-estradiol]", "values": [{"measurement": "reduction in PCSK9 expression", "setting": "PCSK9 [3]", "result": 28, "unit": "%"}, {"measurement": "increase in LDL-Receptor expression", "setting": "LDL-Receptor", "result": 116, "unit": "%"}, {"measurement": "LDL-R signal", "setting": "LDL-Receptor (LDL-R)", "result": "increased"}]}]}
